# Experimental data taken from patent US20150191445A1, “ACYL-HYDRAZONE AND OXADIAZOLE COMPOUNDS, PHARMACEUTICAL COMPOSITIONS CONTAINING THE SAME AND USES THEREOF” (Universidade Federal de Santa Catarina, priority 2011, published 2015).
# Legend:
# Assay type in all cases: cell-based, human
# Jurkat cells [1] = test: Cell cycle analysis, propidium iodide flow cytometry; conditions: 125 nM, 18 h
# Protocol: (§1) The cells were incubated for 12 hours in fresh medium before experiments. Two million cells from the Jurkat line were incubated for 12 h, 18 h, 24 h and 30 h in RPMI-640 medium supplemented with 10% Fetal Bovine Serum (FCS) and 0.2% Penicillin/Streptomycin (PS) with a concentration of 125 nM of compound 07 or DMSO (vehicle).
# The cells treated or not with compound 07 were fixed in 70% ethanol for 2 hours, washed in PBS and incubated for 15 min at 37° C. in 1 mL of Triton X-100 0.1% 0.2 mg/mL of RNAse and 20 μg/mL propidium iodide in PBS. 20,000 events were collected on FACSCalibur flow cytometer with red fluorescence quantification, excluding any cell aggregates by the standard width vs. red fluorescence peak area. The data deconvolution to obtain the percentage of cells in each phase of cell cycle was performed using ModFit software v2.0.
# HL-60 cells = test: DNA microarray gene expression and GSEA analysis; conditions: 125 nM, 6 h
# Protocol: The cells were incubated for 12 hours in fresh medium before the experiments. Two million cells from the leukemic cell line HL60, in triplicate, were treated with a 125 nM dose of compound 07 or with dimethylsulfoxide (DMSO) vehicle for 6 h, in DMEM supplemented with 10% fetal bovine serum. At the end of this period, the cells were recovered by brief centrifugation and lysed in a solution of guanidine of the RNAspin Mini RNA Isolation kit (GE).
# Total RNA was extracted from cells using the RNAspin Mini RNA Isolation kit (GE) following the manufacturer's instructions. A total of 100 ng of RNA was used to prepare biotinylated complementary RNA probes (Bio-cRNA), by cDNA synthesis followed by amplification by in vitro transcription, using the GeneChip WT cDNA Synthesis and Amplification kit (Affymetrix) according to the recommendations of the manufacturer. […]
# the results of the microarray hybridization were read in the Affymetrix Gene Chip Scanner 3000-7G. Data were analyzed in the Bioconductor platform. […] The list of differentially expressed genes were analyzed using the CMap (http://www.broad.mit.edu/cmap/) for identification of possible action mechanisms related to the action of known compounds (Lamb, J., Crawford E. D. The Connectivity Map: Using Gene-Expression Signatures to Connect Small Molecules, Genes and Disease Science 2006, 313, 1929-1935). […]
# [2] = tested on: healthy and phytohemagglutinin-stimulated lymphocytes; test: MTT assay on normal lymphocytes stimulated with phytohemagglutinin; conditions: for Percentage of survival: 48 h, MTT
# Protocol: for the test of compound 07 against normal lymphocytes, blood from human donors was separated in a ficoll gradient and the mononuclear cells were cultivated at 200,000 cells/well, in 80 microliters of RPMI-1640 (containing 10% FBS, 100 IU/mL penicillin and 100 μg/mL streptomycin) and 20 microliters of phytohemagglutinin solution (Cultilab) in each well for stimulation of T lymphocytes. Compound 07 was added in serial dilutions (50%) from 300 to 1 nm. As a control, parallel tests were run with cells from leukemic Jurkat and REH cell lines, and experiments with colchicine with the same concentrations as compound 07. Cytotoxicity was assessed after 48 hours by the MTT method, as described Above.
# Jurkat cells [3] = test: Quantification of apoptosis with Annexin V/PI labeling; conditions: 125 nM, 18 h
# Protocol: as §1
# The cells treated or not with compound 07 were rinsed in PBS and labeled with Annexin V Apoptosis Assay kit (Invitrogen). Briefly, cells were resuspended in appropriate buffer containing calcium and incubated for 15 min with Annexin V-FITC and propidium iodide 5 μg/mL. 10,000 events were collected on FACSCalibur flow cytometer, excluding any debris by forward vs standard, side scatter, with quantification of green and red fluorescence.
compound,measurement,setting,value
COc1cc(C(=O)NN=Cc2cccc3ccccc23)cc(OC)c1OC [Compound 07],effect on cell cycle,Jurkat cells [1],cell cycle arrest in G2/M
same,expression of tubulin and tubulin-specific chaperone gene set (GSEA),HL-60 cells,drastic reduction of the expression of a set of genes of tubulin and tubulin-specific chaperones
same,effect on normal lymphocytes induced by phytohemagglutinin,[2],do not appear to affect normal lymphocytes
same,selectivity for leukemic cells compared to healthy human lymphocytes,[2],~10 times
same,Percentage of survival,[2]; 4.6 nM,103%
same,Percentage of survival,[2]; 9.38 nM,105%
same,Percentage of survival,[2]; 18.75 nM,105%
same,Percentage of survival,[2]; 37.5 nM,101%
same,Percentage of survival,[2]; 75 nM,108%
same,Percentage of survival,[2]; 150 nM,107%
same,Percentage of survival,[2]; 300 nM,95%
same,induction of apoptosis,Jurkat cells [3],strong inducer of apoptosis
